Measured values from patent publication US20260158020A1, “COMPOSITIONS AND USES THEREOF” (BENEVOLENTAI CAMBRIDGE LIMITED, priority 2020, published 2026).
Where two headings read alike, the source gives them in different places.

Experiments:
[1] = tested on: isolated human neutrophils; test: In vitro assay of IL-8 neutrophil activation; format: cell-based; details: FIG. 3
[2] = tested on: inflamed colonic mucosa from ulcerative colitis patients; test: Ex-vivo culture of colon biopsies from ulcerative colitis patients, cytokine release (Method 1); format: cell-based, human; details: colon biopsy samples from two UC patients, vs DMSO vehicle, PF-02545920 0.1 and 1 μM, TAK-063 1 μM, FIGS. 4 and 5
Experimental: The effect of selective PDE10 inhibition was tested on inflamed colonic mucosa from ulcerative colitis patients taken during routine endoscopy (Method 1 detailed below). These samples retain a disease phenotype in ex-vivo culture and secrete high basal levels of inflammatory cytokines. The effect of selective PDE10 inhibition on levels of the inflammatory cytokines IL-8 and IL-6 released from these tissue samples was measured.
These colon biopsies retain an inflammatory phenotype and secrete high levels of inflammatory cytokines in ex-vivo culture. […] The doses tested of each inhibitor will result in selective PDE10A inhibition over the other PDE family members.
Biopsy tissue was obtained from inflamed colonic mucosa from ulcerative colitis patients during routine endoscopy. Ex-vivo biopsy cultures for the analysis of inflammatory cytokine biomarkers were run as previously described (Vossenkämper A. et al. A CD3-specific antibody reduces cytokine production and alters phosphoprotein profiles in intestinal tissues from patients with inflammatory bowel disease. Gastroenterology, 2014, 147, 172-183). […] Supernatants collected at the end of the experiment were snap-frozen and stored at −70° C. For the measurement of cytokines, the frozen culture supernatants were thawed and analysed for levels of the inflammatory cytokines using Luminex cytokine assay kits (R&D Systems) and an R&D Systems MAGPIX® analyser. Mean values±SDs were calculated for the levels of spontaneous cytokine production measured in biopsy culture supernatants from each treatment group.

other PDE family members [3] = tested on: T1, other PDE family members; details: isolated enzyme biochemical assays; literature (Grauer 2009; Kunitomo 2014); read-out: IC50s for other PDE family members; cited from earlier work
T1 construct: other: isolated enzyme biochemical assays; literature (Grauer 2009; Kunitomo 2014)

[4] = tested on: inflamed colonic mucosa from treatment-refractory ulcerative colitis patients; test: Ex-vivo culture of inflamed colon tissue from surgical resection of treatment-refractory UC patients, TNFα release (Method 2); format: cell-based, human; details: colon samples from two treatment-refractory UC patients, with SEB, about 18 h, vs DMSO vehicle; printed 1 M (FIG. 6: 1 μM)
[5] = oral, rodents; cited from earlier work
[6] = tested on: rodents with induced memory deficits; details: oral, 0.1 to 3 mg/kg; cited from earlier work
rats = details: cited from earlier work
[7] = cited from earlier work
other PDE family members [8] = details: cited from earlier work
rat PDE10 = target: T2, rat PDE10 (Rattus norvegicus, UniProt Q9QYJ6); details: cited from earlier work
T2 sequence (Q9QYJ6 1-794): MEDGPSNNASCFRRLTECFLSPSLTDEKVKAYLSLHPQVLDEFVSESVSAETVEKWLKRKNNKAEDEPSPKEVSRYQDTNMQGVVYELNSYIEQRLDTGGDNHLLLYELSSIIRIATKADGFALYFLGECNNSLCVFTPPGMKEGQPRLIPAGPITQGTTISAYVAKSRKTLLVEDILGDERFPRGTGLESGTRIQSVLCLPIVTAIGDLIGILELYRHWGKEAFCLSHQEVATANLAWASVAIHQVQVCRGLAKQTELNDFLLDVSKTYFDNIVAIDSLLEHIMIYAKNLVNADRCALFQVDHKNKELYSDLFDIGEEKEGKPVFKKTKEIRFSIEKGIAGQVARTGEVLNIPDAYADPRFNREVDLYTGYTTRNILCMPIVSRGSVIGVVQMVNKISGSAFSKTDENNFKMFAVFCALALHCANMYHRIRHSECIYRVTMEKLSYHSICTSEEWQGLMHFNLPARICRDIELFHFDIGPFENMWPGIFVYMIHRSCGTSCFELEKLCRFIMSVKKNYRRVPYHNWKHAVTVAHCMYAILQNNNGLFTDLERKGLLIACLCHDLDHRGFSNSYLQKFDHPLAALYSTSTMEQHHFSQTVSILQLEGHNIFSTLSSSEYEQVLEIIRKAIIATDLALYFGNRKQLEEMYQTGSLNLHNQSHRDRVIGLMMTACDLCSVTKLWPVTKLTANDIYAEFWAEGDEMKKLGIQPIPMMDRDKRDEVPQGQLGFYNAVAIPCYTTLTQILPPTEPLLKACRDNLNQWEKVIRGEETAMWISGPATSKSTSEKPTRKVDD

[9] = tested on: rat models relevant to schizophrenia; details: 0.1-0.3 mg/kg; cited from earlier work
human PDE10 = human PDE10 (Homo sapiens, UniProt Q9Y233); details: cited from earlier work
human PDE10, sequence (Q9Y233 whole entry): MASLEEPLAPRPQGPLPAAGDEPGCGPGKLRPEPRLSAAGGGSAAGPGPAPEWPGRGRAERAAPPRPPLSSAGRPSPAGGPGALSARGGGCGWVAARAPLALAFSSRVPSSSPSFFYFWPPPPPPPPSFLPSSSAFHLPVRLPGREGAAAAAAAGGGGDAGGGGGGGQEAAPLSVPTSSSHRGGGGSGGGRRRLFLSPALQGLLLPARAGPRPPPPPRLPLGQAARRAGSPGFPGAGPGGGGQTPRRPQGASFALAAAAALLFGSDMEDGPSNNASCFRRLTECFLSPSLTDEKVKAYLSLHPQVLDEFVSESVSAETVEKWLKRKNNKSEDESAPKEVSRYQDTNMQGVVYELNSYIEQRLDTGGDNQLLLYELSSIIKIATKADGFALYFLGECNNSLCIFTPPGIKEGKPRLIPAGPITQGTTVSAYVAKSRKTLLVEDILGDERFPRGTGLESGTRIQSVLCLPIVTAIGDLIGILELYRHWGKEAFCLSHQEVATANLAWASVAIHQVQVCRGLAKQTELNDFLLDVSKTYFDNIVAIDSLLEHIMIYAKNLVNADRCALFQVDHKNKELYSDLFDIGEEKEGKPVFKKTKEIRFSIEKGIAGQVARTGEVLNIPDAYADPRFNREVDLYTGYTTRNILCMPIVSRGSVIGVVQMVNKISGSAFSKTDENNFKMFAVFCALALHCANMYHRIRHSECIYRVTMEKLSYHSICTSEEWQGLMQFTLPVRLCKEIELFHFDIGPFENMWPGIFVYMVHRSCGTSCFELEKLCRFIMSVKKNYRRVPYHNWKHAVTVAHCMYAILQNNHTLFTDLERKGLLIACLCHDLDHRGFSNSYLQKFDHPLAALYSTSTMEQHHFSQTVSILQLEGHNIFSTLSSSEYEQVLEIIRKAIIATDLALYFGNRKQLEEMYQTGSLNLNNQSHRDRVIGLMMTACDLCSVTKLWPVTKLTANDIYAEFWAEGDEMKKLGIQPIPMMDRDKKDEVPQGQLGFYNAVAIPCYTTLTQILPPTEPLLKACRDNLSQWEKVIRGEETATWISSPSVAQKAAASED

[10] = tested on: rat models relevant to schizophrenia; details: 0.1-0.3 mg/kg; cited from earlier work; remark: listed apart in the source
PDE10A [11] = target: T3, PDE10A (Homo sapiens, UniProt Q9Y233); details: cited from earlier work
T3 sequence (Q9Y233 whole entry): as above

[12] = tested on: animals, conditioned avoidance response model; details: cited from earlier work
PDE10A [13] = target: T3, PDE10A; details: read-out: binding affinity (Kd) PDE10A; cited from earlier work

In the case of `Cn1cc(-c2ccncc2)c(-c2ccc(OCc3ccc4ccccc4n3)cc2)n1` [PF-02545920, 2-[[4-(1-methyl-4-pyridin-4-ylpyrazol-3-yl)phenoxy]methyl]quinolone], the “IL-8 induced neutrophil activation” value [1] is reported as “dose dependently inhibited”, the “secreted levels of IL-6” value [2] is reported as “significantly reduced” and the “secreted levels of IL-8” value [2] is reported as “significantly reduced”. For the same compound, the IC50 (other PDE family members [3]) was over 1000 nM and the “secreted levels of TNFα” value [4] was “significantly reduced”.
In the case of `COc1cc2ncnc(N3CC[C@@H](Oc4cnc5ccccc5n4)C3)c2cc1OC` [PQ-10, 6,7-dimethoxy-4-[(3R)-3-quinoxalin-2-yloxypyrrolidin-1-yl]quinazoline], the brain penetration [5] is listed as “highly brain penetrant”, the induced memory defects [6] is listed as “reversed” and the “basic auditory information processing” value (rats) is listed as “enhances”.
In the case of `CC(=O)N1CCC(c2nccnc2Oc2ccc(C(=O)c3nc4ccccc4[nH]3)cc2)CC1` [AMG-579, 1-[4-[3-[4-(1H-benzimidazole-2-carbonyl)phenoxy]pyrazin-2-yl]piperidin-1-yl]ethanone], the oral bioavailability [7] is listed as “orally bioavailable” and the IC50 (other PDE family members [8]; read-out: IC50 against all other PDE isoforms) is listed as over 30000 nM.
For `Cc1ncc(C)n2nc(/C=C/c3nc(N4CCCC4)cc(N4CCOCC4)n3)nc12` [PDM-042, (E)-4-(2-(2-(5,8-dimethyl-[1,2,4]triazolo[1,5-a]pyrazin-2-yl)vinyl)-6-(pyrrolidin-1-yl)pyrimidin-4-yl) morpholine], the IC50 (rat PDE10) is given as under 1 nM, the conditioned avoidance response [9] is given as “attenuated” and the “selectivity over other PDE families / family members / phosphodiesterases” value (other PDE family members [8]) is given as “more than 1000 fold”. For the same compound, the IC50 (human PDE10) was under 1 nM, the MK-801-induced hyperlocomotion [10] was “significantly antagonized” and the spontaneous locomotor activity [10] was “without affecting”.
In the case of `CCNC(=O)c1sc(Nc2nc(Cl)cc(NCc3cccnc3)n2)nc1C` [BMS-843496, 2-((4-chloro-6-((pyridin-3-ylmethyl)amino)pyrimidin-2-yl)amino)-N-ethyl-4-methylthiazole-5-carboxamide], the IC50 (PDE10A [11]) is listed as 2.11 nM, the “antipsychotic effects, conditioned avoidance response model” value [12] is listed as “correlated with antipsychotic effects” and the Kd (PDE10A [13]) is listed as 0.15 nM. For the same compound, the “selectivity over other PDE families / family members / phosphodiesterases” value (other PDE family members [8]) was over 100 fold.
For `COc1cn(-c2ccc(-n3cccn3)cc2F)nc(-c2ccnn2-c2ccccc2)c1=O` [TAK-063, 1-(2-fluoro-4-pyrazol-1-ylphenyl)-5-methoxy-3-(2-phenylpyrazol-3-yl)pyridazin-4-one], the “secreted levels of IL-6” value [2] is listed as “significantly reduced”, the “secreted levels of IL-8” value [2] is listed as “significantly reduced” and the IC50 (other PDE family members [3]) is listed as over 5000 nM.
